We go through four compounds from patent US12162878B2 (HINOVA PHARMACEUTICALS INC., priority 2018, dated 2024).

In one assay the test system is MDA-MB-453 cells. Description: Inhibition of proliferation of MDA-MB-453 cells (CCK-8). The format is cell-based, human. The conditions noted are these: for IC50: Homo sapiens, 144 h, 6 days, CCK-8. How it is done:
• MDA-MB-453 cell line (Cell Bank of Chinese Academy of Sciences, TCHu35) • FBS (Gibco, Cat. No. 10099-141) • 0.01M PBS (Biosharp, Cat. No. 162262) • RIPM1640 (Hyclone, Cat. No. 308090.01) • Penicillin-Streptomycin (Hyclone, Cat. No. SV30010) • Cell counting kit-8 (Signalway Antibody, Cat. No. CP002) • DMSO (Sigma, Cat. No. D5879) • Centrifuge Tube, 15 ml (Excell Bio, Cat. No. CS015-0001) • Cell Culture Dish, (Excell Bio, Cat. No. CS016-0128) • 96-well cell culture cluster (Corning, Cat. No. 3599) 3. Experimental Method
1) MDA-MB-453 cells were subcultured in cell culture media, and the cells in good growth condition were seeded in a 96-well plate, 80 μL for each well, thus the number of cells per well was 1500, then the plate was cultured overnight in a 37° C., 5% CO2 cell incubator.
2) The drug was prepared with dimethyl sulfoxide (DMSO) as a 10 mM stock solution. Prior to use, the solution was diluted 3 times with DMSO, and then diluted with a 3-fold gradient to obtain 9 concentration gradients. Then, each concentration of the compound was further diluted 200 times with the culture media (to ensure that DMSO concentration in the culture system was 0.1%), 2 repeat wells for each concentration. The diluted solution of each compound (20 μL) was added to the cell culture well (with a final concentration of 10 μM, 3.3 μM, 1.1 μM . . . ), and shaken gently for mixing. In addition, three negative control wells containing only cells and three blank control wells containing only culture medium (20 μL DMSO diluted 200 times with culture medium being added to six wells) were included.
(1) After culturing for 6 days, 10 μL CCK-8 was added to each well and cultured for additional 2.5 h in a 37° C., 5% CO2 cell incubator.
(2) The absorbance (OD value) at 450 nm was measured with a multifunctional microplate reader.
(3) The data was analyzed by the Dose-response-inhibition equation in the software GraphPad Prism6, and the IC50 value was obtained.

In a further assay the target is BRD3(1,2) (Homo sapiens (Human), UniProt Q15059). In words: AlphaScreen binding of compounds on BRD3 (D1+D2). The conditions noted are these: read-out: IC50 against BRD3(1,2). The source says:
(§1) Homogeneous time-resolved fluorescence technology (HTRF) was used to determine the binding effect of compounds on BRD4 (D1+D2) and BRDT (D1) proteins, as well as AlphaScreen method was used to detect the binding effect of compounds on BRD2 (D1+D2) and BRD3 (D1+D2) proteins.
(§2) The compounds were screened in vitro, and each compound was serially diluted to 10 concentrations. Four proteins BRD4 (D1+D2), BRDT (D1), BRD2 (D1+D2) and BRD3 (D1+D2) were chosen to determine the IC50 values of compounds (see Table 1).
(§3) 4. Compound treatment: The test compound was dissolved in dimethyl sulfoxide (DMSO), and the storage concentration was 10 mM.
(§4) 6. AlphaScreen Detection Procedures:
(§5) 1) Preparing One-Fold Concentration of Detection Buffer
(§6) One-fold concentration of detection buffer was prepared (Improved HEPES buffer)
(§7) 2) Gradient Dilution of Compounds
(§8) Echo automatic sampler was used to transfer the compound to the detection plate for gradient dilution, so that the final concentration of dimethyl sulfoxide was 0.1%.
(§9) 3) Preparation of Protein Solution
(§10) The protein was dissolved in one-fold concentration of detection buffer.
(§11) 4) Preparation of Substrate Solution
(§12) The peptide was dissolved in one-fold concentration of detection buffer to prepare the substrate solution.
(§13) 5) 5 μL protein solution was transferred to the detection plate, and one-fold concentration of detection buffer (5 μL) was placed in the negative control wells.
(§14) 6) The plate was incubated for 15 min at room temperature.
(§15) 7) 5 μL substrate solution was added to each well to start the reaction.
(§16) 8) The plate was incubated for additional 60 min at room temperature.
(§17) 9) Preparation of acceptor solution and donor solution in one-fold concentration of assay buffer Acceptor solution (15 μL) and donor solution (15 μL) were respectively added, and then incubated at room temperature for 60 min and protected against exposure to light.
(§18) 10) The endpoint was read in EnSpire and Alpha mode.
(§19) The experimental data were recorded in an Excel file and equation (1) was used to get the inhibition rate. Inh%=(Max−Signal)/(Max−Min)*100 Equation (1):
(§20) The obtained data were input into GraphPad software, and equation (2) was used to obtain the IC50 value. Y=Bottom+(Top−Bottom)/(1+10^((Log IC50−X)*Hill Slope)) Formula (2): […]
(§21) Wherein, Y axis was the inhibition rate, and the X axis was the compound concentration.

A further assay concerns the target BRD2(1,2) (Homo sapiens (Human), UniProt P25440). In words: AlphaScreen binding of compounds on BRD2 (D1+D2). The note with it: read-out: IC50 against BRD2(1,2).
Excerpt: as §1, §2, §3, §4, §5, §6, §7, §8, §9, §10, §11, §12, §13, §14, §15, §16, §17, §18, §19, §20, §21

Another assay has as its target BRDT(D1) (Homo sapiens (Human), UniProt Q58F21). In words: HTRF binding of compounds on BRDT (D1). The conditions noted are these: read-out: IC50 against BRDT(D1).
Excerpt: as §1, §2, §3
(§22) 5. Steps for Homogeneous Time-Resolved Fluorescence Detection:
(§23) 1) According to the arrangement of the detection plate, all compounds were diluted in Echo plate.
(§24) The final dilution concentration of DMSO is 0.1%.
(§25) 2) The compound or DMSO was transferred to a 384-well detection plate with the Echo automatic sampler.
(§26) 3) Two-fold concentration of the mixture of protein and peptide was added to the detection plate.
(§27) 4) Two-fold concentration of mixed detection solution was added to the test plate, and shaken for 30 s.
(§28) 5) Incubating for 2 h at room temperature.
(§29) 6) Fluorescence signal was read on Envision multi-function microplate reader (excitation light wavelength being 340 nm, and emission light wavelength being 615 nm and 665 nm).
(§30) The experimental data were recorded in an Excel file, and equation (1) was used to obtain the inhibition rate. Inh%=(Max−Signal)/(Max−Min)*100 Equation (1):
(§31) The obtained data was recorded in GraphPad software, and equation (2) was used to provide the IC50 values. Y=Bottom+(Top−Bottom)/(1+10^((Log IC50−X)*Hill Slope)) Equation (2): […]
(§32) Y axis was the inhibition rate, and X axis was the compound concentration.

A further assay concerns the target BRD4(1,2) (Homo sapiens (Human), UniProt O60885). In words: HTRF binding of compounds on BRD4 (D1+D2). The note with it: read-out: IC50 against BRD4(1,2).
Excerpt: as §1, §2, §3, §22, §23, §24, §25, §26, §27, §28, §29, §30, §31, §32

BRD3(1,2), sequence (Q15059 29-417): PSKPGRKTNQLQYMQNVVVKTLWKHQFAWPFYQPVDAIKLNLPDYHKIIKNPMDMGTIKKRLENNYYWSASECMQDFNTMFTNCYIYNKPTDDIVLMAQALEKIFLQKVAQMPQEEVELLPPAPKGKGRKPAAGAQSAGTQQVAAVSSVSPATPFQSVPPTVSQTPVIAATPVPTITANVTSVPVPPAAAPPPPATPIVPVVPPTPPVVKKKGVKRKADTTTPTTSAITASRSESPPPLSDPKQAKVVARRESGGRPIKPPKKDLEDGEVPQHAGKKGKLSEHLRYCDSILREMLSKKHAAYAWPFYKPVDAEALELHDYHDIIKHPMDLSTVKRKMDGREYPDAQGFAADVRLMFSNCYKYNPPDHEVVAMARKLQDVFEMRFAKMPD
BRD2(1,2), sequence (P25440 65-459): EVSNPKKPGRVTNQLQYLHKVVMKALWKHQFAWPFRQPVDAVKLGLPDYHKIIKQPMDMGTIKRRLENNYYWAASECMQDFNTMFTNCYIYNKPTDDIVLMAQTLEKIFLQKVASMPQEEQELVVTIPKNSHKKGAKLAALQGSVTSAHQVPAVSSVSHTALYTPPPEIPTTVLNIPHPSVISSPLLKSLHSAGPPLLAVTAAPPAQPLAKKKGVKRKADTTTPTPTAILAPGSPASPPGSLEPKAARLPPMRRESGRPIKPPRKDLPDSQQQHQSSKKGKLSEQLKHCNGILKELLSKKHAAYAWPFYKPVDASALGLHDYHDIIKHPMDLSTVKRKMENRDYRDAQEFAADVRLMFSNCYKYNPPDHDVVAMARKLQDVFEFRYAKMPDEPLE

On to `[2H]C([2H])([2H])n1cc(-c2cc(S(=O)(=O)CC)ccc2N2CCC3(CC3)C2)c2cc[nH]c2c1=O` [Compound 55, 4-(5(ethylsulfonyl)-2-(5-aza-spiro[2.4]heptan-5-yl)phenyl)-6-trideuteromethyl-1H-pyrrolo[2,3-c]pyridin-7(6H)-one], for which, in the assay with MDA-MB-453 cells, the “inhibitory action on MDA-MB-453 cells (in words)” value is recorded as “effective inhibitory action” and it took 48 nM to reach half-maximal inhibition (IC50).
On to `[2H]C([2H])([2H])n1cc(-c2cc(S(C)(=O)=O)ccc2N2CCC3(CC2)CC3(F)F)c2cc[nH]c2c1=O` [Compound 184, 4-(2-(1,1-difluoro-6-aza-spiro[2.5]octan-6-yl)-5-(methylsulfonyl)phenyl)-6-trideuteromethyl-1H-pyrrolo[2,3-c]pyridin-7(6H)-one], for which the 50% inhibitory concentration (IC50) at BRD3(1,2) was 4.7 nM; on BRD2(1,2) it was 2 nM; with MDA-MB-453 cells, 440 nM; on BRDT(D1), 19 nM; on BRD4(1,2), 6.9 nM.
As for `[2H]C([2H])([2H])n1cc(-c2cc(NS(=O)(=O)CC)ccc2N2CCC3(CC2)CC3)c2cc[nH]c2c1=O` [Compound 41], the IC50 at BRD3(1,2) came to 5.2 nM; on BRD2(1,2), 2.3 nM; in the assay with MDA-MB-453 cells it was 89 nM; at BRDT(D1), 30 nM; at BRD4(1,2), 14 nM.
Turning to `[2H]C([2H])([2H])n1cc(-c2cc(S(C)(=O)=O)c(F)cc2N2CCC3(CC2)CC3(F)F)c2cc[nH]c2c1=O` [Compound 219, 4-(2-(1,1-difluoro-6-aza-spiro[2.5]octan-6-yl)-4-fluoro-5-(methylsulfonyl)phenyl)-6-trideuteromethyl-1H-pyrrolo[2,3-c]pyridin-7(6H)-one], the IC50 on BRD3(1,2) amounted to 6.7 nM; on BRD2(1,2), 1.8 nM; at BRDT(D1), 40 nM; at BRD4(1,2), 12 nM.
